# Test results from patent publication US12178882B2, “Alpha polyglutamated pemetrexed and uses thereof” (L.E.A.F. HOLDINGS GROUP LLC, priority 2016, dated 2024).
# Legend:
# [1] = molecular target: T1, reduced folate carriers (RFCs) (Homo sapiens, UniProt P41440); conditions: higher than MTX; cited from earlier work
# T1 sequence (P41440 1-591): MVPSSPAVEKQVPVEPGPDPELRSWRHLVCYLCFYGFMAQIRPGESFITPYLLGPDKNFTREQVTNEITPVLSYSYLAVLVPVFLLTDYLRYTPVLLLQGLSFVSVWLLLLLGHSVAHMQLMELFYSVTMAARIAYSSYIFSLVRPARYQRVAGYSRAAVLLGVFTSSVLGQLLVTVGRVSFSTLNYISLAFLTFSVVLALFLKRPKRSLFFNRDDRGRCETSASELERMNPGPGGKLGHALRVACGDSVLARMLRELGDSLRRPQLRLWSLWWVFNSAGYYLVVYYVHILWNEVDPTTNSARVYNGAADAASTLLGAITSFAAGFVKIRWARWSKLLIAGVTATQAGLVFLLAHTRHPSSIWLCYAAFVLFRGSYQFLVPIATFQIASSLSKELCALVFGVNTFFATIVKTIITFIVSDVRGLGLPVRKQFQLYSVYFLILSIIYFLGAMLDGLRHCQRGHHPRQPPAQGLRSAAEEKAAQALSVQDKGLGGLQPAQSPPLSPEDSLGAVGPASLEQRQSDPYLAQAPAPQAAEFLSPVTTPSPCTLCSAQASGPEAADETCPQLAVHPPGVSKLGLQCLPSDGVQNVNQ
# [2] = test system: AML12 liver cells; experiment: Toxicity to AML12 liver cells; assay type: cell-based; conditions: all doses studied (16-128 nM), 48 hours, FIG. 16
# Description: (§1) Methodologies used for cell line AML12 (non-cancerous liver cells) and CCD841 (non-cancerous colon epithelial cells) are similar to the methods used for cancer cells.
# [3] = test system: CCD841 colon epithelium cells; experiment: Toxicity to CCD841 colon epithelium cells; assay type: cell-based; conditions: all concentrations tested (16-128 nM), 48 hours, FIG. 17
# Description: as §1
smiles,measurement,setting,value
Nc1nc2[nH]cc(CCc3ccc(C(=O)N[C@@H](CCC(=O)O)C(=O)O)cc3)c2c(=O)[nH]1 [pemetrexed],Affinity of RFCs for PMX relative to that for MTX,[1],2 fold
same,Reduction in the AML12 liver cell counts,[2],approximately 40%
same,Decrease in the number of CCD841 colon epithelium cells,[3],≥ 50%
